# Measurements published in article PMC13672995, “NCR13 peptide protects soybean against Cercospora sojina using multi-faceted modes of action and additive interaction with chemical fungicides” (Journal of Experimental Botany, 2025).
# Where a SMILES comes first, the peptide text is derived from it.
# Tested on: C. sojina QoI fungicide-resistant isolate Cs350
# Type: cell-based, Cercospora sojina
# Settings: 48 h
# Protocol: In vitro antifungal activity of AFPs and QoI fungicides was determined using 96-well plate assays as described ([Velivelli et al., 2020]) with slight modifications. Briefly, 2- to 3-week-old C. sojina was used to make a conidial suspension in 2× SFM at the final concentration of ∼10^5 conidia ml^−1. Simultaneously, peptide dilutions (in water) at various concentrations were made. Fungicides were dissolved in 50% acetone and 50% water to make a stock solution of 500 µM, and serial dilutions were made in water as needed. The peptide–conidia or the fungicide–conidia mixture at the ratio of 1:1 (45 µl:45 µl) was added in a 96-well plate and incubated at room temperature for 48 h, after which MICs of the peptides/fungicides were calculated based on microscopy as well as the resazurin cell viability assay ([Velivelli et al., 2020]).
row,SMILES,"MIC (μM) against C. sojina, Fungicide resistant, Cs350"
1,CC[C@H](C)[C@H](NC(=O)[C@H](CCCNC(=N)N)NC(=O)[C@H](CS)NC(=O)[C@H](CCCNC(=N)N)NC(=O)CNC(=O)[C@@H](N)CO)C(=O)N[C@@H](CC(C)C)C(=O)N[C@@H](Cc1ccccc1)C(=O)N[C@@H](CCCNC(=N)N)C(=O)N[C@@H](Cc1c[nH]c2ccccc12)C(=O)N[C@@H](Cc1ccccc1)C(=O)N[C@@H](Cc1c[nH]c2ccccc12)C(=O)N[C@H](C(=O)N[C@@H](CCCCN)C(=O)N[C@@H](CC(N)=O)C(=O)N[C@@H](CS)C(=O)O)[C@@H](C)O [GMA1C_V2] (H-SGRCRILFRWFWTKNC-OH),6 µM
2,CC[C@H](C)[C@H](NC(=O)[C@H](CCCNC(=N)N)NC(=O)[C@H](CS)NC(=O)[C@H](CCCNC(=N)N)NC(=O)CNC(=O)[C@@H](N)CO)C(=O)N[C@@H](CC(C)C)C(=O)N[C@@H](Cc1ccccc1)C(=O)N[C@@H](CCCNC(=N)N)C(=O)N[C@@H](Cc1c[nH]c2ccccc12)C(=O)N[C@@H](Cc1ccc(O)cc1)C(=O)N[C@@H](Cc1ccccc1)C(=O)N[C@H](C(=O)N[C@@H](CCCCN)C(=O)N[C@@H](CC(N)=O)C(=O)N[C@@H](CS)C(=O)O)[C@@H](C)O [GMA1C_V3] (H-SGRCRILFRWYFTKNC-OH),6 µM
3,CC[C@H](C)[C@H](NC(=O)[C@H](CCCNC(=N)N)NC(=O)[C@@H](NC(=O)[C@H](Cc1ccccc1)NC(=O)[C@H](Cc1c[nH]c2ccccc12)NC(=O)[C@H](Cc1ccccc1)NC(=O)[C@H](CCCNC(=N)N)NC(=O)[C@H](CCCNC(=N)N)NC(=O)[C@H](CC(C)C)NC(=O)[C@H](Cc1ccccc1)NC(=O)CNC(=O)[C@H](CCCCN)NC(=O)[C@H](CS)NC(=O)[C@H](CCCNC(=N)N)NC(=O)CNC(=O)CN)[C@@H](C)O)C(=O)N[C@@H](CS)C(=O)O [GMA4CG_V7] (H-GGRCKGFLRRFWFTRIC-OH),6 µM
4,CC[C@H](C)[C@H](NC(=O)[C@H](CCCNC(=N)N)NC(=O)[C@@H](NC(=O)[C@H](Cc1c[nH]c2ccccc12)NC(=O)[C@H](Cc1ccc(O)cc1)NC(=O)[C@H](Cc1c[nH]c2ccccc12)NC(=O)[C@H](CCCNC(=N)N)NC(=O)[C@H](CCCNC(=N)N)NC(=O)[C@H](CC(C)C)NC(=O)[C@H](Cc1ccccc1)NC(=O)CNC(=O)[C@H](CCCCN)NC(=O)[C@H](CS)NC(=O)[C@H](CCCNC(=N)N)NC(=O)CNC(=O)CN)[C@@H](C)O)C(=O)N[C@@H](CS)C(=O)O [GMA4CG_V8] (H-GGRCKGFLRRWYWTRIC-OH),6 µM
5,C[C@H](NC(=O)CN)C(=O)N[C@@H](CS)C(=O)N[C@@H](Cc1c[nH]cn1)C(=O)N[C@@H](CCCNC(=N)N)C(=O)N[C@@H](CCC(N)=O)C(=O)NCC(=O)N[C@@H](Cc1ccccc1)C(=O)NCC(=O)N[C@@H](Cc1ccccc1)C(=O)N[C@@H](C)C(=O)N[C@@H](Cc1c[nH]c2ccccc12)C(=O)N[C@@H](Cc1ccccc1)C(=O)N[C@@H](Cc1c[nH]c2ccccc12)C(=O)N[C@@H](Cc1ccc(O)cc1)C(=O)N[C@@H](CCCCN)C(=O)N[C@@H](CCCCN)C(=O)N[C@@H](CS)C(=O)O [GMA5AC_V1] (H-GACHRQGFGFAWFWYKKC-OH; N-terminus and C-terminus assumed),6 µM
6,C[C@H](NC(=O)CN)C(=O)N[C@@H](CS)C(=O)N[C@@H](Cc1c[nH]cn1)C(=O)N[C@@H](CCCNC(=N)N)C(=O)N[C@@H](CCC(N)=O)C(=O)NCC(=O)N[C@@H](Cc1ccccc1)C(=O)NCC(=O)N[C@@H](Cc1ccccc1)C(=O)N[C@@H](C)C(=O)N[C@@H](Cc1ccccc1)C(=O)N[C@@H](Cc1ccccc1)C(=O)N[C@@H](Cc1ccccc1)C(=O)N[C@@H](Cc1ccc(O)cc1)C(=O)N[C@@H](CCCCN)C(=O)N[C@@H](CCCCN)C(=O)N[C@@H](CS)C(=O)O [GMA5AC_V2] (H-GACHRQGFGFAFFFYKKC-OH; N-terminus and C-terminus assumed),6 µM
